Values after ≈ are worked out from the molar mass of the structure shown.
Legend:
U87MG Human Glioblastoma = test: U87MG human glioblastoma 3H thymidine incorporation; format: cell-based
Method: U87MG Human Glioblastoma (ATCC # HTB-14)
3H Thymidine Incorporation Protocol
BRL Minimum Essential Medium with Earle Salts (500 ml)
+5 mLBRL MEM Non-Essential Amino Acids (10 mM)
+5 mLBRL Penicillin-Streptomycin
+5 mLBRL Na Pyruvate Solution (100 mM)
+5 mLBRL L-Glutamine 200 mM
+50 mLBRL Fetal Bovine Serum (Qualified)
1. Cells were trypsinized and plated at a concentration of 10^4 cells/well in a final volume of 200 μl growth medium in 96-well flat bottom plates and allowed to adhere for 24 hours at 37° C.
2. The media was removed by aspiration with care to not disturb the cell monolayer. 200 μl of fresh growth media was added per well, allowing enough wells for samples to be run in triplicate. Compounds were added in 10 μl PBS solutions and incubated for another 48 hours at 37° C.
3. During the last 5 hours of incubation, plates were labeled with 1 μCi 3H thymidine per well. (NEN thymidine, catalog # NET-027, 6.7 Ci/mmole). The 1 μCi was added in 10 μl of PBS (on the day of harvest.). The plates were returned to the incubator for the last 5 hours.
4. The radioactive media was removed by aspiration, with care not to disturb the cell monolayer. 50 μl of BRL 10×Trypsin was added to each well, followed by incubation at 37° C. for 10 minutes or until the monolayer was loosened from the well bottom. […] Mats were counted in a Wallac Betaplate counter.

Candida albicans = details: particularly against Candida albicans, both in vitro and in vivo; cited from earlier work
[1] = alone; U.S. Pat. No. 4,885,171; cited from earlier work
[2] = test system: experimental allergic encephalomyelitis model; details: model for multiple sclerosis; cited from earlier work
adjuvant arthritis model = details: model for rheumatoid arthritis; cited from earlier work
IgE-like antibodies = details: in vivo; cited from earlier work
[3] = U.S. Pat. No. 5,665,772; cited from earlier work

Compound | IC50 (U87MG Human Glioblastoma; Homo sapiens, U-87 MG) [ng/mL] | antifungal activity (Candida albicans) | antitumor activity [1] | effect in the experimental allergic encephalomyelitis model [2] | effect in the adjuvant arthritis model (adjuvant arthritis model) | inhibition of the formation of IgE-like antibodies (IgE-like antibodies) | IC50 (U87MG Human Glioblastoma; 3H thymidine incorporation, 48 hours incubation, 37° C., U87MG) [ng/mL] | immunosuppressive activity in animal model [3]
CO[C@H]1C[C@@H]2CC[C@@H](C)[C@@](O)(O2)C(=O)C(=O)N2CCCC[C@H]2C(=O)O[C@H]([C@H](C)C[C@@H]2CC[C@@H](O)[C@H](OC)C2)CC(=O)[C@H](C)/C=C(\C)[C@@H](O)[C@@H](OC)C(=O)[C@H](C)C[C@H](C)/C=C/C=C/C=C/1C [Rapamycin] | 0.5 (≈ 0.547 nM) | found to have antifungal activity | shown to have antitumor activity | effective | effective | effectively inhibited | – | –
CO[C@H]1C[C@@H]2CC[C@@H](C)[C@@](O)(O2)C(=O)C(=O)N2CCCC[C@H]2C(=O)O[C@H]([C@H](C)C[C@@H]2CC[C@@H](OCCO)[C@H](OC)C2)CC(=O)[C@H](C)/C=C(\C)[C@@H](O)[C@@H](OC)C(=O)[C@H](C)C[C@H](C)/C=C/C=C/C=C/1C [SDZ-RAD, 40-O-(2-hydroxy)ethyl-rapamycin] | – | – | – | – | – | – | 2.0 (≈ 2.09 nM) | has immunosuppressive activity
